# Source: patent US6964763B1, “Methods and compositions for inhibiting HIV infectivity and blocking chemokine activity” (priority 1997, dated 2005)
# Where a SMILES comes first, the peptide text is derived from it.
# What was measured:
# gp120 (LAI isolate) = biological target: T1, gp120 (LAI isolate) (Human immunodeficiency virus type 1 group M subtype B, UniProt P03377); assay type: binding, HIV-1
# T1 construct: baculovirus-expressed HIV-1 gp120 derived from LAV and MN isolates; host or cells: baculovirus expression system
# Protocol: Increasing concentrations of soluble ^125I-labeled recombinant gp120LAV (nM -1μM) were incubated with immobilized ligand for 2 hours at 37° C., and bound radioactivity measured as in FIGS. 2A and 2B. […] This plot represents a single data set of triplicate samples (72=2, errors as SD).
# Briefly, TSP1 (5-10 μg/ml) or fusion proteins and peptides (10-20 μg/ml) were immobilized on detachable 96-well microtiter plate strips (Immulon-4 Remov-a-well, Dynatech Laboratories, Inc.), by overnight incubation at 4° C. in carbonate buffer (100 mM Na2CO3/1 mM MgCl2/0.02% NaN3, pH 9.8). Washed wells were blocked with 0.5% bovine serum albumin (“BSA”), then incubated in triplicate with soluble radiolabeled ligand for 2.5 hours at 37° C. After extensive washing in 50 mM Tris pH 7.5, 150 mM NaCl, 0.5% Tween-20 (TBS-Tween), bound radioactivity was quantified by gamma counter. […] Specific activity of Na[^125I] was determined for each experiment, ranging from 0.06-1.0 μCi/μg. Specific binding was determined as quenchable in the presence of excess unlabeled ligand, above background binding to BSA-coated wells.
# The gp120 envelope protein was tested to determine whether it shared this same specificity.
# [1] = tested on: CD4-gp120 complex formation; assay: Competitive inhibition of 125I-CD4 binding to immobilized gp120; design: species or system HIV-1 (MN and LAI isolates); details: 10-fold molar excess (0.5 μM) competitor, 50 nM 125I-CD4, MN and LAI gp120
# Protocol: FIG. 5 is a graph showing competitive inhibition of ^125I-CD4 binding to gp120. […] Samples were incubated, and bound TSP1 was measured as in FIG. 2. A single data set of triplicate samples (η=3, error as SD) is shown.
# (§1) Radiolabeling was performed with Na[^125I]
# These observations support a role for salivary TSP1 as a direct inhibitor of HIV infectivity.
# CD4 = biological target: T2, CD4 (Homo sapiens, UniProt P01730); assay: Solid phase binding of 125I-CD4 to immobilized TSP1 and TSP analog
# T2 construct: CHO cell-expressed soluble CD4; host or cells: CHO cells
# Protocol: FIG. 12 is a graph showing the binding of ^125I-CD4 to TSP1 and a TSP analog. Increasing concentrations of soluble ^125I-labeled CD4 (0.1μM -1.0 μM) were added to immobilized TSP1, CVSTCG polypeptide (SEQ. ID. No. 1). Samples were incubated and bound ^125I-labeled CD4 measured by solid-binding radio-amino assay, […].
# as §1
# HIV-1 isolate IIIB = assay: HIV-1 infectivity assay, virus pre-incubated with TSP1 or saliva, p24 ELISA day 7; assay type: cell-based
# Protocol: HIV-1 isolate IIIB was pre-incubated in the absence of TSP1, or with various concentrations of purified TSP1 for 1 hour at 37° C. Pre-incubated virus-TSP1 mixtures were added to target cells either directly (−), or first passed through 0.2 μm filters (+). Phorbol myrisate acetate (“PMA”) activated primary peripheral blood mononuclear cells (“PBMC”), SK23 (T-cell line) or U937 (promonocytic line) were inoculated with the multiplicities of infection (“moi”) indicated. After an additional 1 hour at 37° C., infected cells were washed, cultured for 7 days, and HIV-1 p24 antigen measured by ELISA. Inhibition is expressed for a single data set as percent of maximum p24 detected in the absence of TSP1.
# PMA-stimulated primary PBMC were infected with 0.02 moi HIV/IIIB that had been pre-incubated with TSP1 alone, or with LIMPII fusion protein LFP75-155 alone or in the presence of TSP1, and filtered prior to incubation as in FIG. 7. TSP-mediated inhibition is expressed as percent decrease in p24 relative to maximum p24 detected in the absence of TSP 1. Data shown represent the average of two independent experiments (error as SD).
# CD4+T lymphoblastoid (SK23, Jurkat) and promonocytic (U937) cell lines, or peripheral blood mononuclear cells (“PBMC”) obtained from HIV seronegative donors and activated with phytohemagglutinin (“PHA”, 2 μg/ml for 72 hours), were cultured in RPMI 1640, 5% fetal bovine serum (“FBS”, frozen/thawed and complement-inactivated 30 minutes at 56° C.), 100 U/ml penicillin and 100 μg/ml streptomycin (GIBCO/BRL, Grand Island, N.Y.). PBMC medium also contained 32 U/ml interleukin-2 (Sigma Chemical Co., St. Louis, Mo.). FBS samples were pre-screened to assure that levels of TSP were<10 μg/ml. Acute HIV infection was performed using HIV-1 isolate IIIB stock virus as previously described (Laurence et al., “Human Immunodeficiency Virus Infection of Helper T-Cell Clones: Early Proliferative Defects Despite Intact Antigen-Specific Recognition and Interleukin 4 Secretion,” J. Clin. Invest., 83:1843-1848 (1989); Laurence et al., “Human Immunodeficiency Virus Infection of Monocytes: Relationship to Fc-Gamma Receptors and Antibody-Dependent Viral Enhancement,” Immunology, 70:338-343 (I 990), which are hereby incorporated by reference). Briefly, 2.5×10^5 target cells were exposed to stock virus at a moi of either 0.02 or 0.15 for 2 hours at 37° C., washed once with PBS, and re-plated in tissue culture-treated microwells with 0.3 ml fresh culture medium. At 3-4 days post-inoculation, one half of culture supernatant from each well was replaced with fresh medium. HIV activity was determined after 7 days using an ELISA antigen capture assay for HIV-1 p24 (gag) core protein (Dupont Medical Products, Boston, Mass.) of Triton X-100 solubilized culture supernatants.
# • 100 μl of HIV-1/IIIB inocula were mixed with 100 μl of various concentrations of whole saliva, salivary fluid fractions, or purified platelet TSP1 diluted in serum-free cell culture medium, and pre-incubated for 2 hours at 37° C. Then, 10-fold serial dilutions were added directly to target cell cultures for assay of infectivity. In some experiments, pre-incubated virus-saliva/TSP mixtures were filtered through 0.2 μm nitrocellulose syringe filters (Gelman Sciences, Ann Arbor, Mich.) prior to inoculation of target cells. Salivary TSP1 Depletion Experiments
# CD4 surface expression = assay: Cell surface expression of CD4 by flow cytometry; assay type: cell-based, human; details: 100 μg/ml TSP1, 3 days; Jurkat, SK23, PHA-activated PBMC
# Protocol: CD4 surface expression on HIV-1 infected or uninfected U937 cells was evaluated by indirect immunofluorescence flow cytometry using anti-CD4 mAb Leu3, as detailed elsewhere (Laurence et al., “Human Immunodeficiency Virus Infection of Helper T-Cell Clones: Early Proliferative Defects Despite Intact Antigen-Specific Recognition and Interleukin 4 Secretion,” J. Clin. Invest., 83:1843-1848 (1989), which is hereby incorporated by reference).
# Another mechanism to explain TSP-mediated blockade to HIV infection would be a direct effect on target cells, whereby alterations in cell function would decreased the capacity to support productive infection. To address whether exogenous purified TSP1 induced down-modulation of the high affinity HIV receptor, CD4+ Jurkat and SK23 T-cell lines, as well as PHA-activated PBMC, were monitored for differences in CD4 surface expression after culture for 3 days in the absence or presence of 100 μg/ml TSP1. By flow cytometric analysis of cells stained with fluorescein-conjugated anti-CD4 IgG, no change in relative fluorescence intensity or percent CD4+cell was detected.
# [2] = biological target: recombinant HIV-1 gp160 (gp120 non-covalently linked to gp41) (Human immunodeficiency virus type 1 group M subtype B, UniProt P03375)
# Protocol: Increasing concentrations of soluble ^125I-labeled TSP1 (1 nM-μM) were added to immobilized recombinant HIV-1 gp160 for 3 hours at 22° C., and bound TSP1 measured after extensive washing. Non-linear curve fit was generated with Excell™ version 5.0. Apparent affinity was estimated from Scatchard analysis. (n=2; error calculated as standard deviation, SD).
# A fixed concentration of ^125I-labeled TSP 1(50 nM) was added to immobilized rgp 160 in the absence or presence of 10-fold molar excess (0.5 μM) unlabeled TSP1, fusion protein LFP75-155 containing the LIMPII TSP binding domain (aa 75-155), or downstream fusion protein LFP 156-243. Samples were incubated, and bound TSP 1 was measured as in FIG. 2A. Plots represent single data sets of triplicate samples. (n=3, error as SD).
# Briefly, TSP1 (5-10 μg/ml) or fusion proteins and peptides (10-20 μg/ml) were immobilized on detachable 96-well microtiter plate strips (Immulon-4 Remov-a-well, Dynatech Laboratories, Inc.), by overnight incubation at 4° C. in carbonate buffer (100 mM Na2CO3/1 mM MgCl2/0.02% NaN3, pH 9.8). Washed wells were blocked with 0.5% bovine serum albumin (“BSA”), then incubated in triplicate with soluble radiolabeled ligand for 2.5 hours at 37° C. After extensive washing in 50 mM Tris pH 7.5, 150 mM NaCl, 0.5% Tween-20 (TBS-Tween), bound radioactivity was quantified by gamma counter. Radiolabeling was performed with Na[^125I] […] Specific activity of Na[^125I] was determined for each experiment, ranging from 0.06-1.0 μCi/μg. Specific binding was determined as quenchable in the presence of excess unlabeled ligand, above background binding to BSA-coated wells.
# RANTES = biological target: T3, RANTES (Homo sapiens, UniProt P13501); assay: Solid phase binding of 125I-RANTES to immobilized TSP
# T3 sequence (P13501 24-91): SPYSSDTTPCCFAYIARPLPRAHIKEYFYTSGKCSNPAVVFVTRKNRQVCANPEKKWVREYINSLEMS
# Protocol: FIG. 9 is a graph showing the binding of ^125I-RANTES to TSP1. Increasing concentrations of soluble ^125I-labeled RANTES (0.01 μM -10.0 μM) were added to immobilized TSP1. Samples were incubated and bound ^125I-labeled RANTES measured by solid-binding radio-amino assay.
# FIG. 10 is a graph showing the Hanes analysis of “^125-RANTES binding to immobilized TSP1. The Hanes analysis provides a measure of assessing the possibility of binding one or more factors to a given molecule.
# as §1
# In solid phase assays, ^125I-RANTES binded to immobilized TSP. […] Estimated stoichiometry at equilibrium was low (˜0.5 RANTES molecule for every 10 TSP monomer), although the steep slope of the second phase indicated a cooperative interaction (Hanes plot, FIG. 10). One interpretation of the data is that RANTES homodimerization is favored over binding to TSP. At a concentration that shifts equilibrium toward formation of the heterologous complex, positive cooperativity likely reflects a higher apparent affinity of RANTES monomers for binding to TSP, with an increase in monomers being a function of the odd number of sites presented by TSP homotrimers.
# [3] = tested on: monocytotropic strains of HIV-1, p13 and HA593; assay: HIV-1 infectivity assay with monocytotropic patient isolates; assay type: cell-based; details: 100 μg/ml TSP1, viral moi 0.8
compound,measurement,setting,value
GRGDS (GRGDA) [reference compound],binding of 125I-gp120 to immobilized peptide (in words),gp120 (LAI isolate),inefficient binding
same,inhibition of 125I-CD4 binding to immobilized gp120,[1],4±4%
"CC(C)[C@H](NC(=O)[C@H](CO)NC(=O)[C@@H](N)CS)C(=O)N[C@H](C(=O)N[C@@H](CS)C(=O)NCC(=O)O)[C@@H](C)O [CSVTCG, cys-ser-val-thr-cys-gly] (H-CSVTCG-OH; N-terminus and C-terminus assumed)",binding of 125I-CD4 to immobilized ligand (in words),CD4,binded directly
same,inhibition of 125I-CD4 binding to immobilized gp120,[1],53±9%
fibrinogen [reference compound],effect on HIV-1 infection of PBMC (in words),"HIV-1 isolate IIIB; same system as TSP1, pre-filtered",no effect
"VGSCCT [scrambled control peptide, reference compound]",binding of 125I-gp120 to immobilized peptide (in words),gp120 (LAI isolate),inefficient binding
same,inhibition of 125I-CD4 binding to immobilized gp120,[1],enhanced binding
thrombospondin-1 [TSP1],change in relative fluorescence intensity or percent CD4+ cells,CD4 surface expression,no change
same,inhibition of 125I-TSP1 binding to gp160,"[2]; 10-fold molar excess (0.5 μM) unlabeled competitor, 50 nM 125I-TSP1",94±6%
same,Kd,"[2]; read-out: apparent affinity of TSP1 binding to immobilized recombinant gp160, soluble 125I-TSP1, Scatchard analysis",~250 nM
same,binding of 125I-CD4 to immobilized ligand (in words),CD4,concentration dependent saturatable manner
same,estimated stoichiometry at equilibrium,RANTES,~0.5 RANTES molecule for every 10 TSP monomer
same,Kd,"RANTES; saturatable, biphasic higher order kinetics, read-out: half maximal binding of 125I-RANTES to immobilized TSP",~330 nM
same,"inhibition of HIV infectivity, strains p13 and HA593",[3],≥ 98±1%
same,inhibition of 125I-CD4 binding to immobilized gp120,[1],complete inhibition
same,reduction of HIV-1 infection of PHA-activated donor PBMC (p24),"HIV-1 isolate IIIB; 2-10 μg/ml TSP1, pre-filtered",> 83%
same,reduction of HIV-1 infectivity after brief exposure,"HIV-1 isolate IIIB; 5 minutes exposure of TSP-virion mixture, 1 μg/ml TSP1",> 50%
same,"inhibition of HIV-1 IIIB infection, SK23",HIV-1 isolate IIIB; SK23 CD4+ T-lymphoblastoid cell line,≥ 90.7%
same,"inhibition of HIV-1 IIIB infection, U937",HIV-1 isolate IIIB; U937 monocytoid cell line,≥ 83.0%
same,inhibition of HIV-1 on direct addition of TSP1,"HIV-1 isolate IIIB; no filtration, only with high concentration of TSP1 and low moi inoculum",50-75%
